Assays:
CD45 = molecular target: T1, CD45 (Homo sapiens, UniProt P08575); experiment: In vitro PTPase inhibition assay (pNPP, colorimetric), CD45; assay type: biochemical; settings: Table 9; read-out: IC50 values against CD45
T1 construct: The PCR reaction product (2127 bp) was digested with Sma I (New England Biolabs, Beverly Mass.) to yield a 2110 bp product; made in house; host or cells: E. coli DH5α, plasmid pET24C-CD45
T1 sequence (P08575 599-1306 limits assumed): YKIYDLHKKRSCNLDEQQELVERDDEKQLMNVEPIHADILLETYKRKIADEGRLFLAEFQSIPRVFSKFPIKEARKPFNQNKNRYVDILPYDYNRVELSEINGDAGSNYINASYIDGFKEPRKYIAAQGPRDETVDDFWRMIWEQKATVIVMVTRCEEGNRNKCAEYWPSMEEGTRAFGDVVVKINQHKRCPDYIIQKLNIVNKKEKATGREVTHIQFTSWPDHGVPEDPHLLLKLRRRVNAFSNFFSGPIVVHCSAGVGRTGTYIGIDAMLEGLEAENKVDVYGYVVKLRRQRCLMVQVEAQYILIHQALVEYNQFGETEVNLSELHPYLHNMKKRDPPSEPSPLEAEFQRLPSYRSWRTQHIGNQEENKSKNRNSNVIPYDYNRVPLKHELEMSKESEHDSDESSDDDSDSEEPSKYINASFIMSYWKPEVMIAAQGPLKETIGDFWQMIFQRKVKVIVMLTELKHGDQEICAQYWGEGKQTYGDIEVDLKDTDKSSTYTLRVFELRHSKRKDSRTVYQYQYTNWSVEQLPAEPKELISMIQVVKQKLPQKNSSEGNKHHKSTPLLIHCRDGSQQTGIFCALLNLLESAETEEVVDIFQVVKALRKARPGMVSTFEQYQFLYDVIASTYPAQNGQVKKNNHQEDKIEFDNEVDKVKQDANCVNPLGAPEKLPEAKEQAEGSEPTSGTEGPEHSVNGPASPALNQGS
Method: CD45 enzymatic activity of samples was assayed in microtiter plates as follows. […] Louis Mo.), and 80 ul of activity assay buffer (100 mM sodium acetate, pH 6.0, 1 mM EDTA, 0.1% Triton X-100, 15 mM bME). Reactions were mixed gently and incubated at 37° C. for 60 minutes. […] To determine the enzymatic activity, absorbance readings of the reactions were measured at 405 nm using a Molecular Devices Thermomax Plate Reader (Menlo Park Calif.). […] Purified phosphatase was added to the reaction mixtures to begin the reactions; the reactions were incubated at 37° C. for 60 min. […] (for PTP-1C and PTPα assays), stopped, and colorimetrically analyzed as described above. […] First, absorbance readings from the negative control reactions were treated as a baseline and subtracted from the absorbance readings of the experimental reactions. Then, for each reaction, a percent inhibition was calculated using the following formula: […] For each inhibitor compound tested, an IC50 concentration was calculated from a best-fit computer analysis of the calculated percent inhibition for the various dilutions of the compound. CD45 enzymatic activity of samples was assayed in microtiter plates as follows. […] Louis Mo.), and 80 ul of activity assay buffer (100 mM sodium acetate, pH 6.0, 1 mM EDTA, 0. 1% Triton X-100, 15 mM bME). Reactions were mixed gently and incubated at 37° C. for 60 minutes. […] To determine the enzymatic activity, absorbance readings of the reactions were measured at 405 nm using a Molecular Devices Thermomax Plate Reader (Menlo Park Calif.). […] Purified phosphatase was added to the reaction mixtures to begin the reactions; the reactions were incubated at 37° C. for 60 min. […] (for PTP-1C and PTPα assays), stopped, and calorimetrically analyzed as described above. […] First, absorbance readings from the negative control reactions were treated as a baseline and subtracted from the absorbance readings of the experimental reactions. Then, for each reaction, a percent inhibition was calculated using the following formula: […] For each inhibitor compound tested, an IC50 concentration was calculated from a best-fit computer analysis of the calculated percent inhibition for the various dilutions of the compound.

PTP-1B = molecular target: T2, PTP-1B (Homo sapiens, UniProt P18031); experiment: In vitro PTPase inhibition assay (pNPP, colorimetric), PTP-1B; assay type: biochemical; settings: Table 9; read-out: IC50 values against PTP1B
T2 construct: known to encode a 321 amino acid fragment containing the PTP-1B catalytic domain and having PTPase activity; made in house; host or cells: E. coli DH5α, plasmid pGEX-3X-PTP-1B
T2 sequence (P18031 3-277 limits assumed): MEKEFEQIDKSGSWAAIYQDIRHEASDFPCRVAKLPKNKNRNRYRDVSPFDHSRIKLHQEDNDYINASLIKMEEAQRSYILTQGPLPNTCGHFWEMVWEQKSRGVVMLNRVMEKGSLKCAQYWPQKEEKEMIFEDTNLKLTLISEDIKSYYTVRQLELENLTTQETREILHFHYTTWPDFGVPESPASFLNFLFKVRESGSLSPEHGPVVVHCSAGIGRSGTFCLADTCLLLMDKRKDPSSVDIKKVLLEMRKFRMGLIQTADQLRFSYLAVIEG
Method: PTP-1B enzymatic activity of samples was assayed in microtiter plates as follows. The protein concentration of the PTP-1B enzyme preparation was determined using the Bio-Rad Protein Assay kit (Bio-Rad, Hercules Calif.). […] Reactions were mixed gently and incubated at 37° C. for 60 minutes. Enzymatic cleavage of phosphate from pNPP (a tyrosine phosphate analog) is marked by a colorimetric change in this substrate. See, e.g., Imbert et al., Biochem J., 297:163-173 (1994); Ghosh and Miller, Biochem. Biophys. Res. […] Zanke et al., Eur. J. […] To determine the enzymatic activity, absorbance readings of the reactions were measured at 405 nm using a Molecular Devices Thermomax Plate Reader (Menlo Park Calif.). […] Purified phosphatase was added to the reaction mixtures to begin the reactions; the reactions were incubated at 37° C. for 60 min. […] (for PTP-1C and PTPα assays), stopped, and colorimetrically analyzed as described above. […] First, absorbance readings from the negative control reactions were treated as a baseline and subtracted from the absorbance readings of the experimental reactions. Then, for each reaction, a percent inhibition was calculated using the following formula: […] For each inhibitor compound tested, an IC50 concentration was calculated from a best-fit computer analysis of the calculated percent inhibition for the various dilutions of the compound. PTP-1B enzymatic activity of samples was assayed in microtiter plates as follows. The protein concentration of the PTP-1B enzyme preparation was determined using the Bio-Rad Protein Assay kit (Bio-Rad, Hercules Calif.). […] Reactions were mixed gently and incubated at 37° C. for 60 minutes. Enzymatic cleavage of phosphate from pNPP (a tyrosine phosphate analog) is marked by a colorimetric change in this substrate. See, e.g., Imbert et al., Biochem J., 297:163-173 (1994); Ghosh and Miller, Biochem. Biophys. Res. […] Zanke et al., Eur. […] To determine the enzymatic activity, absorbance readings of the reactions were measured at 405 nm using a Molecular Devices Thermomax Plate Reader (Menlo Park Calif.). […] Purified phosphatase was added to the reaction mixtures to begin the reactions; the reactions were incubated at 37° C. for 60 min. […] (for PTP-1C and PTPα assays), stopped, and calorimetrically analyzed as described above. […] First, absorbance readings from the negative control reactions were treated as a baseline and subtracted from the absorbance readings of the experimental reactions. Then, for each reaction, a percent inhibition was calculated using the following formula: […] For each inhibitor compound tested, an IC50 concentration was calculated from a best-fit computer analysis of the calculated percent inhibition for the various dilutions of the compound.

SMILES | IC50 (CD45) | IC50 (PTP-1B)
O=C(O)/C=C/c1ccc(-c2nc(-c3c(F)c(F)c(F)c(F)c3F)[nH]c2-c2ccc(/C=C/C(=O)O)cc2)cc1 [Compound 84] | 2700 nM | 1200 nM
O=C(O)/C=C/c1ccc(-c2nc(-c3ccc4c(c3)OCO4)[nH]c2-c2ccc(/C=C/C(=O)O)cc2)cc1 [Compound 85] | 1800 nM | 1500 nM
COc1ccc(-c2nc(-c3ccc(/C=C/C(=O)O)cc3)c(-c3ccc(/C=C/C(=O)O)cc3)[nH]2)c(C)c1C [Compound 86] | 7100 nM | 1800 nM
O=C(O)/C=C/c1ccc(-c2nc(-c3ccc(OCc4ccccc4)cc3)[nH]c2-c2ccc(/C=C/C(=O)O)cc2)cc1 [Compound 87] | 1100 nM | 1000 nM
O=C(O)/C=C/c1ccc(-c2nc(-c3ccc4c(c3)CCC4)[nH]c2-c2ccc(/C=C/C(=O)O)cc2)cc1 [Compound 89] | > 100000 nM | 13700 nM
CC(=O)Nc1ccc(-c2nc(-c3ccc(/C=C/C(=O)O)cc3)c(-c3ccc(/C=C/C(=O)O)cc3)[nH]2)cc1 [Compound 90] | 1120 nM | 860 nM
COc1ccc(-c2nc(-c3cc(/C=C/C(=O)O)ccc3O)c(-c3cc(/C=C/C(=O)O)ccc3O)[nH]2)cc1 [Compound 91] | > 100000 nM | 25900 nM
CCCCn1cnc(-c2ccc(/C=C/C(=O)O)cc2)c1-c1ccc(/C=C/C(=O)O)cc1 [Compound 94] | 7000 nM | 700 nM
O=C(O)/C=C/c1ccc(-c2ncn(-c3ccccc3)c2-c2ccc(/C=C/C(=O)O)cc2)cc1 [Compound 99] | 7400 nM | 1500 nM
O=C(O)/C=C/c1ccc(-c2[nH]cnc2C(=O)OCc2ccccc2)cc1 [Compound 134] | 20000 nM | 3400 nM
O=C(O)/C=C/c1ccc(-c2nc(C(=O)OCc3ccccc3)c(-c3ccc(/C=C/C(=O)O)cc3)[nH]2)cc1 [Compound 136] | 8000 nM | 700 nM
O=C(O)/C=C/c1ccc(-c2nc3ccc([N+](=O)[O-])cc3nc2-c2ccc(/C=C/C(=O)O)cc2)cc1 [Compound 152] | 1200 nM | 850 nM

Continued, values first:

IC50 (CD45) | IC50 (PTP-1B) | SMILES
1910 nM | 2650 nM | O=C(O)/C=C/c1ccc(-c2nc3cc(Cl)c(Cl)cc3nc2-c2ccc(/C=C/C(=O)O)cc2)cc1 [Compound 153]
2450 nM | 3830 nM | Cc1ccc2nc(-c3ccc(/C=C/C(=O)O)cc3)c(-c3ccc(/C=C/C(=O)O)cc3)nc2c1 [Compound 154]
1300 nM | 1000 nM | O=C(O)/C=C/c1ccc(-c2nc3ccc(C(=O)O)cc3nc2-c2ccc(/C=C/C(=O)O)cc2)cc1 [Compound 155]
1300 nM | 1700 nM | COC(=O)c1ccc2nc(-c3ccc(/C=C/C(=O)O)cc3)c(-c3ccc(/C=C/C(=O)O)cc3)nc2c1 [Compound 156]
1500 nM | 5500 nM | O=C(O)/C=C/c1ccc(-c2nc3ccccc3nc2-c2ccc(/C=C/C(=O)O)cc2)cc1 [Compound 157]
1520 nM | 980 nM | O=C(O)/C=C/c1ccc(-c2nc3cccnc3nc2-c2ccc(/C=C/C(=O)O)cc2)cc1 [Compound 160]

Source: patent US20020183518A1, “Modulators of proteins with phosphotyrosine recognition units” (ONTOGEN CORPORATION, priority 1995, published 2002)
